Assay results from US20100234364A1, “CCR2 INHIBITORS AND METHODS OF USE THEREOF” (priority 2007, published 2010).

biological target: T1, CCR2 (Homo sapiens, UniProt P41597); experiment: chemotaxis (conventional migration), ligand binding or calcium mobilization (calcium flux) assays; type: cell-based; settings: Table 2: activity in one of the chemotaxis
T1 construct: chemokine expressing cells (such as THP-1 cells for CCR2 assay or MOLT-4 cells for CCR9 assay); host or cells: THP-1 cells
Method: THP-1 cells and MOLT-4 cells were obtained from the American Type Culture Collection (Manassas, Va.) and cultured in RPMI tissue culture medium supplemented with 10% fetal calf serum (FCS) in a humidified 5% CO2 incubator at 37° C. Recombinant human chemokine proteins MCP-1 and TECK were obtained from R&D Systems (Minneapolis, Minn.). ^125I-labeled MCP-1 protein was obtained from Amersham (Piscataway, N.J.). ChemoTX® chemotaxis microchambers were purchased from Neuro Probe (Gaithersburg, Md.). CyQUANT® cell proliferation kits were purchased from Molecular Probes (Eugene, Oreg.). Calcium indicator dye Fluo-4 AM was purchased from Molecular Devices (Mountain View, Calif.).
Conventional-migration assay was used to determine the efficacy of potential receptor antagonists in blocking migration mediated through chemokines (such as CCR2 or CCR9). This assay was routinely performed using the ChemoTX® microchamber system with a 5-μm pore-sized polycarbonate membrane. To begin such an assay, chemokine expressing cells (such as THP-1 cells for CCR2 assay or MOLT-4 cells for CCR9 assay) were harvested by centrifugation of cell suspension at 1000 RPM on a GS-6R Beckman centrifuge. The cell pellet was resuspended in chemotaxis buffer (HBSS with 0.1% BSA) at 10×10^6cells/mL for CCR2 assay (5 ×10^6cells/mL for CCR9 assay). Test compounds at desired concentrations were prepared from 10 mM stock solutions by serial dilutions in chemotaxis buffer. An equal volume of cells and compounds were mixed and incubated at room temperature for 15 minutes. Afterwards, 20 μL of the mixture was transferred onto the porous membrane of a migration microchamber, with 29 μL of chemokine ligand (0.1 nM chemokine MCP-1 protein for CCR2 assay or 50 nm chemokine TECK protein for CCR9 assay) placed at the lower chamber. Following an incubation at 37° C. (90-minute for CCR2; 150-minute for CCR9), during which cells migrated […] the chemokine gradient, the assay was terminated by removing the cell drops from atop the filter. To quantify cells migrated across the membrane, 5 μL of 7X CyQUANT® solution was added to each well in the lower chamber, and the fluorescence signal measured on a Spectrafluor Plus fluorescence plate reader (TECAN, Durham, N.C.). The degree of inhibition was determined by comparing migration signals between compound-treated and untreated cells. IC50 calculation was further performed by non-linear squares regression analysis using Graphpad Prism (Graphpad Software, San Diego, Calif.).
Calcium flux assay measures an increase in intracellular calcium following ligand-induced receptor activation. In the screen of chemokine antagonists, it was used as a secondary assay carried out on a FLIPR® machine (Molecular Devices, Mountain View, Calif.). To begin an assay, chemokine expressing cells (such as THP-1 cells for CCR2 assay or MOLT-4 cells for CCR9 assay) were harvested by centrifugation of cell suspension, and resuspended to 1.5×10^6 cells/mL in HBSS (with 1% fetal calf serum). Cells were then labeled with a calcium indicator dye Fluo-4 AM for 45 minutes at 37° C. with gentle shaking. Following incubation, cells were pelletted, washed once with HBSS and resuspended in the same buffer at a density of 1.6×10^6 cells/mL. One hundred microliters of labeled cells were mixed with 10 μL of test compound at the appropriate concentrations on an assay plate. Chemokine protein (MCP-1 at a final concentration of 0.1 nM for CCR2 assay or TECK at a final concentration of 25 nM for CCR9 assay) to activate the receptor. The degree of inhibition was determined by comparing calcium signals between compound-treated and untreated cells. IC50 calculations were further performed by non-linear squares regression analysis using Graphpad Prism (Graphpad Software, San Diego, Calif.).
Ligand binding assay was used to determine the ability of potential CCR2 antagonists to block the interaction between CCR2 and its ligand MCP-1. […]

T1 sequence (P41597 whole entry): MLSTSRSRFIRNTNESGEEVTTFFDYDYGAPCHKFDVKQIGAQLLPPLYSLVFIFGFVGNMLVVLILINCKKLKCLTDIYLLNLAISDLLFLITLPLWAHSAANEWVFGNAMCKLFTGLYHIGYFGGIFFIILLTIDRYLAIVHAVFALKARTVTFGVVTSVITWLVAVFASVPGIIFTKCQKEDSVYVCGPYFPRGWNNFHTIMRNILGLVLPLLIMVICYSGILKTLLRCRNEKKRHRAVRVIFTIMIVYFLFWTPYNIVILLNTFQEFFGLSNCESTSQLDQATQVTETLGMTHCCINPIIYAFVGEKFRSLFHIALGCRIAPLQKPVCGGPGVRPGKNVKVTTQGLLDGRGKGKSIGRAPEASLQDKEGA

| Structure (SMILES) | IC50 |
| --- | --- |
| O=S(=O)(Nc1cc(Cl)ccc1C(O)c1ccccc1)c1ccc(Cl)c(C(F)(F)F)c1 (stereo not shown) | < 0.5 µM |
| COC(=O)C1CCCN1C(=O)c1ccc(Cl)cc1NS(=O)(=O)c1ccc(Cl)c(C(F)(F)F)c1 (stereo not shown) | < 0.5 µM |
| O=C(c1ccc(Cl)cc1NS(=O)(=O)c1ccc(Cl)c(C(F)(F)F)c1)N1CCOCC1 | < 0.5 µM |
| Cn1cncc1C(=O)c1ccc(Cl)cc1NS(=O)(=O)c1ccc(Cl)c(C(F)(F)F)c1 | < 0.5 µM |
| O=C(c1ccc(Cl)cc1NS(=O)(=O)c1ccc(Cl)c(C(F)(F)F)c1)N1CCS(=O)(=O)CC1 | < 0.5 µM |
| CN(C)C(=O)C1CCCN1C(=O)c1ccc(Cl)cc1NS(=O)(=O)c1ccc(Cl)c(C(F)(F)F)c1 (stereo not shown) | < 0.5 µM |
| O=C(c1ccccc1)c1ccc(Cl)cc1NS(=O)(=O)c1ccc(F)c(F)c1 | < 0.5 µM |
| O=C(c1ccccc1)c1ccc(Cl)cc1NS(=O)(=O)c1ccc(Cl)cc1 | < 0.5 µM |
| O=C(c1ccc(Cl)cc1NS(=O)(=O)c1ccc(Cl)c(C(F)(F)F)c1)N1CCCC1 | < 0.5 µM |
| O=C(c1cocn1)c1cc(Cl)ccc1NS(=O)(=O)c1ccc(Cl)c(C(F)(F)F)c1 | < 0.5 µM |
| O=C(c1ccc(Cl)cc1NS(=O)(=O)c1ccc(Cl)c(Cl)c1)N1CCOCC1 | < 0.5 µM |
| O=C(O)c1cc(S(=O)(=O)Nc2ccc(Cl)cc2C(=O)c2ccccc2)c(F)cc1Cl | < 0.5 µM |
| Cn1nc(-c2cc(Cl)ccc2NS(=O)(=O)c2ccc(Cl)c(C(F)(F)F)c2)c2ccccc21 | < 0.5 µM |
| O=C(c1ccc(Cl)cc1NS(=O)(=O)c1ccc(Cl)c([N+](=O)[O-])c1)N1CCOCC1 | < 0.5 µM |
| Cn1nnnc1-c1ccc(Cl)cc1NS(=O)(=O)c1ccc(Cl)c(C(F)(F)F)c1 | < 0.5 µM |
| Cc1cc(S(=O)(=O)Nc2cc(Cl)ccc2C(=O)N(C)c2ccccn2)ccc1Cl | < 0.5 µM |
| CN(C(=O)c1ccc(Cl)cc1NS(=O)(=O)c1cccc(C(F)(F)F)c1)c1ccccn1 | < 0.5 µM |
| O=C(c1ccc(Cl)cc1NS(=O)(=O)c1ccc(Cl)c(C(F)(F)F)c1)c1ccnc2[nH]ccc12 | < 0.5 µM |
| Cc1nnc(-c2cc(Cl)ccc2NS(=O)(=O)c2ccc(C(C)(C)C)cc2)c2ccccc12 | < 0.5 µM |
| CC(C)(C)c1ccc(S(=O)(=O)Nc2ccc(Cl)cc2-c2nncc3ccccc23)cc1 | < 0.5 µM |

More lines, now with the values ahead:

| IC50 | Structure (SMILES) |
| --- | --- |
| < 0.5 µM | O=C(c1ccncc1)c1ccc(Cl)cc1NS(=O)(=O)c1ccc(Cl)c(C(F)(F)F)c1 |
| < 0.5 µM | O=S(=O)(Nc1cc(Cl)ccc1Oc1ccccc1)c1ccc(Cl)c(C(F)(F)F)c1 |
| < 0.5 µM | O=C(c1ccccc1)c1ccc(Cl)cc1NS(=O)(=O)c1cccc(C(F)(F)F)c1 |
| < 0.5 µM | O=C(c1cccnc1)c1cc(F)c(F)cc1NS(=O)(=O)c1ccc(Cl)c(C(F)(F)F)c1 |
| < 0.5 µM | O=C(c1ccccc1)c1ccc(Br)cc1NS(=O)(=O)c1ccc(Cl)c(C(F)(F)F)c1 |
| < 0.5 µM | O=C(c1cccnc1)c1cc(Cl)ccc1NS(=O)(=O)c1ccc(Cl)c(Cl)c1 |
| < 0.5 µM | Cc1ccc(C(=O)c2cc(Cl)ccc2NS(=O)(=O)c2ccc(Cl)c(Cl)c2)cn1 |
| < 0.5 µM | O=C(c1ccccc1)c1ccc(F)cc1NS(=O)(=O)c1ccc(Cl)c(C(F)(F)F)c1 |
| < 0.5 µM | CO/N=C(/c1ccc(Cl)cc1NS(=O)(=O)c1ccc(Cl)c(C(F)(F)F)c1)c1ccnc2[nH]ccc12 |

same assay, conditions: Table 3: activity in one of the chemotaxis

| Structure (SMILES) | IC50 |
| --- | --- |
| COc1ccc(NS(=O)(=O)c2ccc(Cl)c(Cl)c2)c(C(=O)N2CCOCC2)c1 | 0.5 to 5 µM |
| O=C(c1ccccn1)c1cc(Cl)ccc1NS(=O)(=O)c1ccc(Cl)c(C(F)(F)F)c1 | 0.5 to 5 µM |
| O=S(=O)(Nc1ccccc1Oc1ccccc1)c1ccc(Cl)c(Cl)c1 | 0.5 to 5 µM |
| O=S(=O)(Nc1cc(Cl)ccc1-c1ncco1)c1ccc(Cl)c(Cl)c1 | 0.5 to 5 µM |
| O=C(c1ccc(Cl)cc1NS(=O)(=O)c1ccc(Br)c(F)c1)N1CCOCC1 | 0.5 to 5 µM |

Results, then the molecule that gave them:

| IC50 | Structure (SMILES) |
| --- | --- |
| 0.5 to 5 µM | Cn1ccnc1C(=O)c1cc(Cl)ccc1NS(=O)(=O)c1ccc(Cl)c([N+](=O)[O-])c1 |
| 0.5 to 5 µM | O=S(=O)(Nc1ccc(Cl)cc1-c1ccccn1)c1ccc(Cl)c(C(F)(F)F)c1 |
| 0.5 to 5 µM | O=C(O)C1CCCN1C(=O)c1ccc(Cl)cc1NS(=O)(=O)c1ccc(Cl)c(C(F)(F)F)c1 (stereo not shown) |
